Experimental data as given in patent US9486447B2, “Compositions and methods for controlling neuronal excitation” (The General Hospital Corporation, priority 2011, dated 2016).
“And” between values parts separate entries of the source, which are not always exact repeats. Equal entries are not always repeated.

Legend:
[1] = test system: dorsal root ganglia (DRG) sensory neurons; assay: Calcium imaging of DRG sensory neurons; format: cell-based, mouse
Procedure: To determine if optovin acts on sensory neurons, the activity of treated and untreated dorsal root ganglia (DRG) sensory neurons isolated from wild type mice were compared. […] TRPA1 channels play important roles in detecting chemical, thermal, and mechanical stimuli in a variety of organisms^34,35.
C57Bl/6 male mice (3-4 weeks old) were decapitated and DRG were dissected into 4° C. Hank's Balanced Salt Solution (HBSS; Gibco), then neurons were dissociated using collagenase (1 mg/mL; Worthington) and dispase (5 mg/mL; Gibco) dissolved in HBSS. Neurons were plated in Neurobasal-A medium (Invitrogen), supplemented with B-27 Supplement (Gibco), L-glutamine (Gibco), and penicillin-streptomycin (Gibco). The neurons were plated onto coverslips coated with 0.1 mg/mL poly-D-lysine (Sigma) and 5 μg/mL laminin (Sigma). After 24 h, neurons were washed with assay buffer (HBSS, supplemented with 9 mM HEPES, 11 mM D-glucose, 0.1% fatty-acid free BSA, pH 7.3) and incubated for 1 h with 2 μM Fura2-AM (Invitrogen) with 0.2% pluronic (Invitrogen) in assay buffer in the dark at room temperature. The neurons were then washed with assay buffer and allowed to equilibrate at room temperature for 30 min prior to imaging. After a 120 s baseline perfusion of assay buffer containing 3.3% DMSO, 100 μM optovin dissolved in the DMSO-assay buffer solution, or the DMSO-assay buffer solution alone as a control, was perfused onto the neurons for a period of 1 min. Fura-2 is activated with UV-light, and the process of imaging Fura-2 was enough to activate the optovin. […] Following this one-minute period, cells were perfused with DMSO-assay buffer to remove the agonist, which was followed by addition of 100 μM mustard oil (in DMSO-assay buffer) to determine the total number of TrpA1-expressing neurons present. Images were acquired on a Nikon Eclipse Ti microscope (Nikon, Melville, N.Y.).

[2] = molecular target: 5-HT1A (Homo sapiens, UniProt P08908); assay: NIMH PDSP binding assay; settings: primary screening, mean of N = 4 determinations
Text: (§1) To determine if optovin's mechanism of action could be predicted via behavioral profiling^30,32, optovin's behavioral profile was compared to the behavioral profiles of 700 annotated neuroactive compounds tested in triplicate. These compounds include ligands targeting the adrenergic, serotonergic, histaminergic, dopaminergic, cholinergic and glutamatergic pathways. […] To gain insight into optovin's mechanism of action, optovin and two active optovin analogs were profiled using the National Institutes of Mental Health Psychoactive Drug Screening Program (NIMH PDSP) to determine their activities against a panel of human and rodent CNS receptors, channels and transporters.
(§2) Activity determinations were generously provided by the National Institute of Mental Health's Psychoactive Drug Screening Program, Contract # HHSN-271-2008-00025-C(NIMH PDSP). Complete assay details are found on-line at: http://pdsp.med.unc.edu/UNC-CH %20Protocol %20Book.pdf

[3] = molecular target: 5-HT1B (Homo sapiens, UniProt P28222); assay: NIMH PDSP binding assay; settings: primary screening, mean of N = 4 determinations
Text: as §1, §2

[4] = molecular target: 5-HT2A (Homo sapiens, UniProt P28223); assay: NIMH PDSP binding assay; settings: primary screening, mean of N = 4 determinations
Text: as §1, §2

[5] = molecular target: 5-HT2B (Homo sapiens, UniProt P41595); assay: NIMH PDSP binding assay; settings: primary screening, mean of N = 4 determinations
Text: as §1, §2

[6] = molecular target: 5-HT3 (Homo sapiens, UniProt P46098); assay: NIMH PDSP binding assay; settings: primary screening, mean of N = 4 determinations
Text: as §1, §2

[7] = molecular target: 5-HT6 (Homo sapiens, UniProt P50406); assay: NIMH PDSP binding assay; settings: primary screening, mean of N = 4 determinations
Text: as §1, §2

[8] = molecular target: 5-HT7 (Homo sapiens, UniProt P34969); assay: NIMH PDSP binding assay; settings: primary screening, mean of N = 4 determinations
Text: as §1, §2

[9] = molecular target: A2B4 (Rattus norvegicus, UniProt P12389+P12392); assay: NIMH PDSP binding assay; settings: primary screening, mean of N = 4 determinations
Text: as §1, §2

[10] = molecular target: A3B4 (Rattus norvegicus, UniProt P04757+P12392); assay: NIMH PDSP binding assay; settings: primary screening, mean of N = 4 determinations
Text: as §1, §2

[11] = molecular target: A4B4 (Rattus norvegicus, UniProt P09483+P12392); assay: NIMH PDSP binding assay; settings: primary screening, mean of N = 4 determinations
Text: as §1, §2

[12] = molecular target: Alpha1A (Homo sapiens, UniProt P35348); assay: NIMH PDSP binding assay; settings: primary screening, mean of N = 4 determinations
Text: as §1, §2

[13] = molecular target: Alpha2C (Homo sapiens, UniProt P18825); assay: NIMH PDSP binding assay; settings: primary screening, mean of N = 4 determinations
Text: as §1, §2

[14] = molecular target: T1, Beta1 (Homo sapiens, UniProt P08588); assay: NIMH PDSP binding assay; settings: primary screening, mean of N = 4 determinations
T1 construct: NIMH PDSP
Text: as §1, §2

[15] = molecular target: T2, Beta3 (Homo sapiens, UniProt P13945); assay: NIMH PDSP binding assay; settings: primary screening, mean of N = 4 determinations
T2 construct: NIMH PDSP
Text: as §1, §2

[16] = molecular target: T3, D1 (Homo sapiens, UniProt P21728); assay: NIMH PDSP binding assay; settings: primary screening, mean of N = 4 determinations
T3 construct: NIMH PDSP
Text: as §1, §2

[17] = molecular target: T4, D3 (Homo sapiens, UniProt P35462); assay: NIMH PDSP binding assay; settings: primary screening, mean of N = 4 determinations
T4 construct: NIMH PDSP
Text: as §1, §2

[18] = molecular target: T5, D5 (Homo sapiens, UniProt P21918); assay: NIMH PDSP binding assay; settings: primary screening, mean of N = 4 determinations
T5 construct: NIMH PDSP
Text: as §1, §2

[19] = molecular target: T6, DOR (Homo sapiens, UniProt P41143); assay: NIMH PDSP binding assay; settings: primary screening, mean of N = 4 determinations
T6 construct: NIMH PDSP
Text: as §1, §2

[20] = test system: GABAA; assay: NIMH PDSP binding assay; settings: primary screening, mean of N = 4 determinations
Text: as §1, §2

[21] = molecular target: T7, H1 (Homo sapiens, UniProt P35367); assay: NIMH PDSP binding assay; settings: primary screening, mean of N = 4 determinations
T7 construct: NIMH PDSP
Text: as §1, §2

[22] = molecular target: T8, H2 (Homo sapiens, UniProt P25021); assay: NIMH PDSP binding assay; settings: primary screening, mean of N = 4 determinations
T8 construct: NIMH PDSP
Text: as §1, §2

[23] = molecular target: T9, KOR (Homo sapiens, UniProt P41145); assay: NIMH PDSP binding assay; settings: primary screening, mean of N = 4 determinations
T9 construct: NIMH PDSP
Text: as §1, §2

[24] = molecular target: T10, M1 (Homo sapiens, UniProt P11229); assay: NIMH PDSP binding assay; settings: primary screening, mean of N = 4 determinations
T10 construct: NIMH PDSP
Text: as §1, §2

[25] = molecular target: T11, M2 (Homo sapiens, UniProt P08172); assay: NIMH PDSP binding assay; settings: primary screening, mean of N = 4 determinations
T11 construct: NIMH PDSP
Text: as §1, §2

[26] = molecular target: T12, M5 (Homo sapiens, UniProt P08912); assay: NIMH PDSP binding assay; settings: primary screening, mean of N = 4 determinations
T12 construct: NIMH PDSP
Text: as §1, §2

[27] = molecular target: T13, MOR (Homo sapiens, UniProt P35372); assay: NIMH PDSP binding assay; settings: primary screening, mean of N = 4 determinations
T13 construct: NIMH PDSP
Text: as §1, §2

[28] = molecular target: T14, SERT (Homo sapiens, UniProt P31645); assay: NIMH PDSP binding assay; settings: primary screening, mean of N = 4 determinations
T14 construct: NIMH PDSP
Text: as §1, §2

[29] = molecular target: Sigma 2 (Rattus norvegicus, UniProt Q5U3Y7); assay: NIMH PDSP binding assay; settings: primary screening, mean of N = 4 determinations
Text: as §1, §2

T10 sequence (P11229 whole entry): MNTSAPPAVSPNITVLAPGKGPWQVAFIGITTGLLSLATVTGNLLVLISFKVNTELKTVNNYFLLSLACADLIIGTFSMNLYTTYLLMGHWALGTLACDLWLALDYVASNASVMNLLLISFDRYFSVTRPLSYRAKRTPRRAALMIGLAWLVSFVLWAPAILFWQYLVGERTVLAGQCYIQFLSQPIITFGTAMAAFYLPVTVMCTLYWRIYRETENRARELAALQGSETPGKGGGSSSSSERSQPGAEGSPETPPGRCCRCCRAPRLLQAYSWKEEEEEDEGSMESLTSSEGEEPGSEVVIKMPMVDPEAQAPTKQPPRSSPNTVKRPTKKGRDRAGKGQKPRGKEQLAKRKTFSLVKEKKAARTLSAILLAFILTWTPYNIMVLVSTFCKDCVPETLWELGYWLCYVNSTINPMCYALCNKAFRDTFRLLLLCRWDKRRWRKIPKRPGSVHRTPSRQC
T12 sequence (P08912 whole entry): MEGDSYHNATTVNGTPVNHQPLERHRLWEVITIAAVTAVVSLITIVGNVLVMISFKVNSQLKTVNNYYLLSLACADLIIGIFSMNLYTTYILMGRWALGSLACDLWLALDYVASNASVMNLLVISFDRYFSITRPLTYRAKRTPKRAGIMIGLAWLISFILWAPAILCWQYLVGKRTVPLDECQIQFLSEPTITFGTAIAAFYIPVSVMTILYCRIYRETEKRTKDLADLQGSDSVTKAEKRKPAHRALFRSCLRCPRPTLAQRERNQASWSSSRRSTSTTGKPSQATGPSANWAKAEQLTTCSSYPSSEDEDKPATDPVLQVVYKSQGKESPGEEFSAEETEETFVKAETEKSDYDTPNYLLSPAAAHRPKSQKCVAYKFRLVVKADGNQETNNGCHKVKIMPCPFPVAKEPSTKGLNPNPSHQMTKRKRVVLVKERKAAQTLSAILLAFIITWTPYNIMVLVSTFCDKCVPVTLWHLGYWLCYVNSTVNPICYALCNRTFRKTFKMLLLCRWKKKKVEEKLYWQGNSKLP
T1 sequence (P08588 whole entry): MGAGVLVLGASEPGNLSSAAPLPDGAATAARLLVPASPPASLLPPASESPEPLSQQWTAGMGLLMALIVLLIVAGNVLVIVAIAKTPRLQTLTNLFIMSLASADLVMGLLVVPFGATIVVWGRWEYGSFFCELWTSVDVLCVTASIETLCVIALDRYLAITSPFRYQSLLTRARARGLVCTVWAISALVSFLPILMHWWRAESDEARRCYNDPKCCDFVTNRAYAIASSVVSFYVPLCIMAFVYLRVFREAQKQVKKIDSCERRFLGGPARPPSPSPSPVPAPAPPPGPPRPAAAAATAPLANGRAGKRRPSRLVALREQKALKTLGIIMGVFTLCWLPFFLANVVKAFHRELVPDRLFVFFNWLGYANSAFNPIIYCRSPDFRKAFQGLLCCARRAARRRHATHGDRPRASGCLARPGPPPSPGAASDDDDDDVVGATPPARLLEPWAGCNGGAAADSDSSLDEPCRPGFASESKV
T9 sequence (P41145 whole entry): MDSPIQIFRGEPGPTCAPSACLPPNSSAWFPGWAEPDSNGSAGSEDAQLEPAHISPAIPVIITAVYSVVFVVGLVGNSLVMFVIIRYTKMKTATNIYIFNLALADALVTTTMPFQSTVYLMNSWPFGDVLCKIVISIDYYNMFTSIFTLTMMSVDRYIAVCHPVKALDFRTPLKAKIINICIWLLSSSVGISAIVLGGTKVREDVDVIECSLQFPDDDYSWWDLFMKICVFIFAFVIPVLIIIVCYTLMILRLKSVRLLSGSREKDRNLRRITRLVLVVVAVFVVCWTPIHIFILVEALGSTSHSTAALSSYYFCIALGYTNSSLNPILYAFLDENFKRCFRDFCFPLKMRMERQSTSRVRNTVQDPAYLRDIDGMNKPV
Chain of 5-HT2A (P28223 whole entry, species assumed): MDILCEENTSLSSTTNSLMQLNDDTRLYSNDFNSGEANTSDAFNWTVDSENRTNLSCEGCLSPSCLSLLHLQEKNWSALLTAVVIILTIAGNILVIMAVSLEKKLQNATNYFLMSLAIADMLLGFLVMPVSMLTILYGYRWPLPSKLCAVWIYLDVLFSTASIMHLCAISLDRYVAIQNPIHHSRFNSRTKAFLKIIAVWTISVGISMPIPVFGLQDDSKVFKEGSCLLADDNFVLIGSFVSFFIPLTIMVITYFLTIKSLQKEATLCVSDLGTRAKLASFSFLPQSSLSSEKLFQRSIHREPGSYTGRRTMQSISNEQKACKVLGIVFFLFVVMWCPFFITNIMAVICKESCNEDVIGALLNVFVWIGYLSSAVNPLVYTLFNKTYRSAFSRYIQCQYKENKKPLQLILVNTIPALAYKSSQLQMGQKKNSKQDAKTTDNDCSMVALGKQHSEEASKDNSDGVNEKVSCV
Chain of 5-HT3 (P46098 24-478, species assumed): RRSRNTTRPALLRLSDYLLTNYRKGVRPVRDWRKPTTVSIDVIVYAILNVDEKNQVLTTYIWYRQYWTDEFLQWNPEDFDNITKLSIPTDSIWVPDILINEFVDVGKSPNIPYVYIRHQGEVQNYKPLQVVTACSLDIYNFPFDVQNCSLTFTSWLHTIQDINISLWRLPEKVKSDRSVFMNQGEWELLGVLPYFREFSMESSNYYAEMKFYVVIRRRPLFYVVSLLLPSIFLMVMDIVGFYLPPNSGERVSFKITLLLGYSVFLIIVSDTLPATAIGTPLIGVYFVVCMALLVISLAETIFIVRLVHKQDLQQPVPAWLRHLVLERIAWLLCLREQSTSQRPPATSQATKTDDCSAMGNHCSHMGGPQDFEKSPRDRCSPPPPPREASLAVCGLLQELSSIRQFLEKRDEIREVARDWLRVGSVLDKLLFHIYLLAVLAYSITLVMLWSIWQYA
Chain of 5-HT1A (P08908 whole entry, species assumed): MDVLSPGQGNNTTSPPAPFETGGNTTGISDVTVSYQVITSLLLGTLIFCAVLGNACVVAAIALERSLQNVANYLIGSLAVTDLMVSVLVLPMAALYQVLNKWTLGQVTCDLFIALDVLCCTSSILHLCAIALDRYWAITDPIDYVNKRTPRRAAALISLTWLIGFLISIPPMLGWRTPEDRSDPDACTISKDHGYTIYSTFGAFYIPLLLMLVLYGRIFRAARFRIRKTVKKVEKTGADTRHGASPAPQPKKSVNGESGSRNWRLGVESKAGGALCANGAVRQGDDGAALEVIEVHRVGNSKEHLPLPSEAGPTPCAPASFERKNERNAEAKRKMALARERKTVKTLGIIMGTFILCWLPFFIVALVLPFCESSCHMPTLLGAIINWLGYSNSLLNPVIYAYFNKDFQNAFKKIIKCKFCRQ
Chain of 5-HT2B (P41595 whole entry, species assumed): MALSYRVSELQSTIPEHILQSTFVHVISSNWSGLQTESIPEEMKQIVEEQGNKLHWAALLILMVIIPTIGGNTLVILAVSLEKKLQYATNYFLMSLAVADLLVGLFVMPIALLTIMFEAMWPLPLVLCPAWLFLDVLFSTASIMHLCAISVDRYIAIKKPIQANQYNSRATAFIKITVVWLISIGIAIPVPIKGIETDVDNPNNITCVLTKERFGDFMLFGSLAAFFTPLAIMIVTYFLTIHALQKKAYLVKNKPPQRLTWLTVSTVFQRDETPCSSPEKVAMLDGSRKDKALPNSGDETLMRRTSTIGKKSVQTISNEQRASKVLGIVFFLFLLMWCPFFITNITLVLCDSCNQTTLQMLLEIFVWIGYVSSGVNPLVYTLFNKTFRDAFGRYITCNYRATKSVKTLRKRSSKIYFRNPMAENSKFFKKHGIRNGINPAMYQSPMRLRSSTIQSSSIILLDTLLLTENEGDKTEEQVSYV
T8 sequence (P25021 whole entry): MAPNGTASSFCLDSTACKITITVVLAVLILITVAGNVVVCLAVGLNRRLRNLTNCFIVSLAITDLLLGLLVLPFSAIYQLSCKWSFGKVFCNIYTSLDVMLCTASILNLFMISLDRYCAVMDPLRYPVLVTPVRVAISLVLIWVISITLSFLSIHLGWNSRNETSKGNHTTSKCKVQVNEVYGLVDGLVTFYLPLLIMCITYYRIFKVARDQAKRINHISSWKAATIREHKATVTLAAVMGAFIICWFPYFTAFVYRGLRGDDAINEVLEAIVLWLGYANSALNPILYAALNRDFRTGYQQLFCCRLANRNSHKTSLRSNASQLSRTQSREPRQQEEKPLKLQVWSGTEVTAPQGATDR
Chain of 5-HT6 (P50406 whole entry, species assumed): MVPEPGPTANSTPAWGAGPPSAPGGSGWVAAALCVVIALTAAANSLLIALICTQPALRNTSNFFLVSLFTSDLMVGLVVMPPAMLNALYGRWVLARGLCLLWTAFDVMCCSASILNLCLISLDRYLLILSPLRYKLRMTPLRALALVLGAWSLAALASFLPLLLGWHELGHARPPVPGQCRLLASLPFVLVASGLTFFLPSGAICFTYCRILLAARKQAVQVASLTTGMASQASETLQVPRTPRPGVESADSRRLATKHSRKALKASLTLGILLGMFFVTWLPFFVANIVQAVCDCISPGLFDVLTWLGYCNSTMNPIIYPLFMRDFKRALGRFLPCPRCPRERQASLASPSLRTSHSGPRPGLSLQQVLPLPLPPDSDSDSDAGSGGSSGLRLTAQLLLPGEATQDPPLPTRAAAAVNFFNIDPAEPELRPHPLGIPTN
T4 sequence (P35462 whole entry): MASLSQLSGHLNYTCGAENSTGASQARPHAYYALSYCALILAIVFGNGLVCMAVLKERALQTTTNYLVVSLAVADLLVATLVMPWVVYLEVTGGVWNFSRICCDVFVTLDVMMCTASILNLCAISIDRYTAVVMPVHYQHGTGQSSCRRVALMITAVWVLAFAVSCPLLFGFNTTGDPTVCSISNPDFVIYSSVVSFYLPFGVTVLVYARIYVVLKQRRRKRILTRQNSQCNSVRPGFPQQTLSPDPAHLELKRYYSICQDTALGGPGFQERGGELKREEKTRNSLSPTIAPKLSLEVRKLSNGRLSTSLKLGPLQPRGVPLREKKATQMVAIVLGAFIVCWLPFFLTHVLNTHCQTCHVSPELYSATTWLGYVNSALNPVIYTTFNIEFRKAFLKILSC

Cc1cc(/C=C2/SC(=S)NC2=O)c(C)n1-c1cccnc1 [optovin]
activation of DRG neurons with light ([1]; 100 μM optovin, illuminated (Fura-2 imaging)): strongly activated | activation of DRG neurons in the dark ([1]; optovin treatment in the dark): did not occur | Avg % inhibition (5-HT1A) [2]: 6.7% | Avg % inhibition (5-HT1B) [3]: 11.8% | Avg % inhibition (5-HT2A) [4]: −1.1% | Avg % inhibition (5-HT2B) [5]: −2.0% | Avg % inhibition (5-HT3) [6]: −1.7% | Avg % inhibition (5-HT6) [7]: −16.5% | Avg % inhibition (5-HT7) [8]: −0.8% | Avg % inhibition (A2B4) [9]: −7.8% | Avg % inhibition (A3B4) [10]: −12.5% | Avg % inhibition (A4B4) [11]: −8.8% | Avg % inhibition (Alpha1A) [12]: −5.4% | Avg % inhibition (Alpha2C) [13]: 3.3% | Avg % inhibition (Beta1) [14]: 19.4% | Avg % inhibition (Beta3) [15]: 20.2% | Avg % inhibition (D1) [16]: 9.0% | Avg % inhibition (D3) [17]: 34.3% | Avg % inhibition (D5) [18]: 13.6% | Avg % inhibition (DOR) [19]: −7.2% | Avg % inhibition (GABAA) [20]: −2.2% | Avg % inhibition (H1) [21]: 1.1% | Avg % inhibition (H2) [22]: 41.1% | Avg % inhibition (KOR) [23]: 10.9% | Avg % inhibition (M1) [24]: 32.9% and 16.9% | Avg % inhibition (M2) [25]: 6.6% | Avg % inhibition (M5) [26]: 3.7% | Avg % inhibition (MOR) [27]: −0.7% | Avg % inhibition (SERT) [28]: 75.8% | Avg % inhibition (Sigma 2) [29]: 16.0%
